Laboratory results as given in PubChem BioAssay AID330 (DTP/NCI, 2004).
“And” between values parts separate entries of the source, which are not always exact repeats. Equal entries are not always repeated. Inconclusive results and toxic doses are left out. Peptide text beside a SMILES is read from it. * marks the point of attachment. Cbz = O=C(OCc1ccccc1)*

Test system: P388 leukemia ip, CD2F1 mice, survival T/C
Experiment: NCI In Vivo Anticancer Drug Screen. Data for tumor model P388 Leukemia (intraperitoneal) in CD2F1 (CDF1) mice
Conditions: endpoint: median survival time, higher = longer survival
Summary of the method: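 Mice carrying the transplanted tumor received test compound or vehicle. Survival was recorded in each group, and the value is the treated-group measurement divided by that of the vehicle-treated control group.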

[1] = dose: 60.0 mg/kg/injection, schedule: Q01DX005 (ip), vehicle: saline with Tween-80
[2] = dose: 50.0 mg/kg/injection, schedule: Q01DX009 (ip), vehicle: saline with Tween-80
[3] = dose: 100.0 mg/kg/injection, schedule: Q01DX009 (ip), vehicle: saline with Tween-80
[4] = dose: 200.0 mg/kg/injection, schedule: Q01DX009 (ip), vehicle: saline with Tween-80
[5] = dose: 50.0 mg/kg/injection, schedule: Q01DX005 (ip), vehicle: saline with Tween-80
[6] = dose: 100.0 mg/kg/injection, schedule: Q01DX005 (ip), vehicle: saline with Tween-80
[7] = dose: 200.0 mg/kg/injection, schedule: Q01DX005 (ip), vehicle: saline with Tween-80
[8] = dose: 100.0 mg/kg/injection, schedule: Q01DX001 (ip), vehicle: saline with Tween-80
[9] = dose: 200.0 mg/kg/injection, schedule: Q01DX001 (ip), vehicle: saline with Tween-80
[10] = dose: 400.0 mg/kg/injection, schedule: Q01DX001 (ip), vehicle: saline with Tween-80
[11] = dose: 50.0 mg/kg/injection, schedule: Q01DX005 (ip), vehicle: Klucel (hydroxypropylcellulose) (HPC)
[12] = dose: 100.0 mg/kg/injection, schedule: Q01DX005 (ip), vehicle: Klucel (hydroxypropylcellulose) (HPC)
[13] = dose: 120.0 mg/kg/injection, schedule: Q01DX005 (ip), vehicle: saline with Tween-80
[14] = dose: 240.0 mg/kg/injection, schedule: Q01DX005 (ip), vehicle: saline with Tween-80
[15] = dose: 50.0 mg/kg/injection, schedule: Q01DX009 (ip), vehicle: Klucel (hydroxypropylcellulose) (HPC)
[16] = dose: 100.0 mg/kg/injection, schedule: Q01DX009 (ip), vehicle: Klucel (hydroxypropylcellulose) (HPC)
[17] = dose: 200.0 mg/kg/injection, schedule: Q01DX009 (ip), vehicle: Klucel (hydroxypropylcellulose) (HPC)
[18] = dose: 12.5 mg/kg/injection, schedule: Q01DX005 (ip), vehicle: saline with Tween-80
[19] = dose: 100.0 mg/kg/injection, schedule: Q04DX002 (ip), vehicle: saline with Tween-80
[20] = dose: 200.0 mg/kg/injection, schedule: Q04DX002 (ip), vehicle: saline with Tween-80
[21] = dose: 400.0 mg/kg/injection, schedule: Q04DX002 (ip), vehicle: saline with Tween-80
[22] = dose: 12.5 mg/kg/injection, schedule: Q01DX005 (ip), vehicle: Klucel (hydroxypropylcellulose) (HPC)
[23] = dose: 25.0 mg/kg/injection, schedule: Q01DX005 (ip), vehicle: Klucel (hydroxypropylcellulose) (HPC)

## C[CH2][Sn]([CH2]C)([O][P+](=O)C[Si](C)(C)c1ccccc1)[O][P+](=O)C[Si](C)(C)c1ccccc1 (stereo unspecified)
dose: 30.0 mg/kg/injection, schedule: Q01DX005 (ip), vehicle: saline with Tween-80
  T/C: 119 % of control
[1]
  T/C: 153 % of control

## O=C(CON1C(=O)CCC1=O)c1ccccc1
[2]
  T/C: 106 % of control
[3]
  T/C: 112 % of control
[4]
  T/C: 112 % of control

## CC(NC(=O)C(Cc1ccc(O)cc1)NC(=O)C(C)NC(=O)OCc1ccccc1)C(=O)O (stereo not drawn) (Cbz-Ala-Tyr-Ala-OH; configuration not given here)
[5]
  T/C: 100 % of control
[6]
  T/C: 104 % of control
[7]
  T/C: 99 % of control

## CCc1cccc(CC)c1N1CC(C(=O)O)CC1=O (stereo unspecified)
dose: 60.0 mg/kg/injection, schedule: Q01DX005 (ip), vehicle: Klucel (hydroxypropylcellulose) (HPC)
  T/C: 107 % of control
dose: 120.0 mg/kg/injection, schedule: Q01DX005 (ip), vehicle: Klucel (hydroxypropylcellulose) (HPC)
  T/C: 101 % of control
dose: 240.0 mg/kg/injection, schedule: Q01DX005 (ip), vehicle: Klucel (hydroxypropylcellulose) (HPC)
  T/C: 101 % of control

## N=C(N)COCc1ccccc1
dose: 25.0 mg/kg/injection, schedule: Q01DX009 (ip), vehicle: saline
  T/C: 116 % of control
dose: 50.0 mg/kg/injection, schedule: Q01DX009 (ip), vehicle: saline
  T/C: 120 % of control
dose: 100.0 mg/kg/injection, schedule: Q01DX009 (ip), vehicle: saline
  T/C: 111 % of control

## Cc1ccc(S(=O)(=O)N/N=C/c2c(-c3ccc(-c4ccccc4)cc3)nc3n2CCS3)cc1
[8]
  T/C: 100 % of control
[9]
  T/C: 102 % of control
[10]
  T/C: 90 % of control

## COc1ccc2c(c1)OC(C)(C)C(c1ccccc1)C2c1ccc(O)c([N+](=O)[O-])c1 (stereo unspecified)
[11]
  T/C: 109 % of control
[12]
  T/C: 101 % of control

## COC(=O)[C@H]1O[C@H]1c1ccncc1
[11]
  T/C: 100 % of control and 104 % of control
[12]
  T/C: 103 % of control and 92 % of control
dose: 200.0 mg/kg/injection, schedule: Q01DX005 (ip), vehicle: Klucel (hydroxypropylcellulose) (HPC)
  T/C: 103 % of control and 94 % of control
dose: 400.0 mg/kg/injection, schedule: Q01DX005 (ip), vehicle: Klucel (hydroxypropylcellulose) (HPC)
  T/C: 101 % of control and 92 % of control

## CCCCCCCC1SCC(=O)N1c1nncs1 (stereo unspecified)
[1]
  T/C: 94 % of control
[13]
  T/C: 94 % of control
[14]
  T/C: 91 % of control

## CCSc1nc(N)c(C(=O)N2CCCCC2)s1
[15]
  T/C: 99 % of control
[16]
  T/C: 98 % of control
[17]
  T/C: 105 % of control

## CC(=O)OCC1OC(OC2CC(=O)C[C@H]3C(=O)N(c4ccccc4)C(=O)[C@@H]23)C(OC(C)=O)C(OC(C)=O)C1OC(C)=O (stereo partly specified)
[1]
  T/C: 102 % of control
[13]
  T/C: 103 % of control
[14]
  T/C: 92 % of control

## COCC(O)CN1CCN(c2ccccc2C)CC1 (stereo unspecified)
dose: 25.0 mg/kg/injection, schedule: Q04DX003 (ip), vehicle: saline with Tween-80
  T/C: 100 % of control
dose: 50.0 mg/kg/injection, schedule: Q04DX003 (ip), vehicle: saline with Tween-80
  T/C: 100 % of control
dose: 100.0 mg/kg/injection, schedule: Q04DX003 (ip), vehicle: saline with Tween-80
  T/C: 90 % of control

## CC1=CC(Cc2ccccc2)N(C)C(C#N)C1 (stereo unspecified)
[18]
  T/C: 101 % of control
dose: 25.0 mg/kg/injection, schedule: Q01DX005 (ip), vehicle: saline with Tween-80
  T/C: 105 % of control
[5]
  T/C: 109 % of control and 116 % of control

## COc1cc(O)cc2c1CCC(c1ccccc1)O2 (stereo unspecified)
dose: 1.8 mg/kg/injection, schedule: Q01DX005 (ip), vehicle: Klucel + Tween-80
  T/C: 107 % of control
dose: 3.5 mg/kg/injection, schedule: Q01DX005 (ip), vehicle: Klucel + Tween-80
  T/C: 107 % of control
dose: 7.0 mg/kg/injection, schedule: Q01DX005 (ip), vehicle: Klucel + Tween-80
  T/C: 97 % of control
dose: 14.0 mg/kg/injection, schedule: Q01DX005 (ip), vehicle: Klucel + Tween-80
  T/C: 100 % of control

## CC1=C(C(=O)Nc2ccccc2)C(c2ccc(Cl)cc2Cl)C(C(=O)Nc2ccccc2)=C(C)N1
[19]
  T/C: 99 % of control
[20]
  T/C: 101 % of control
[21]
  T/C: 92 % of control

## CSc1nc(Cl)c(Cl)cc1Cl
[2]
  T/C: 100 % of control
[3]
  T/C: 97 % of control
[4]
  T/C: 91 % of control

## CC1(C)N=C(N)N=C(N)N1CCCCc1ccccc1
dose: 6.25 mg/kg/injection, schedule: Q01DX005 (ip), vehicle: Klucel (hydroxypropylcellulose) (HPC)
  T/C: 110 % of control
[22]
  T/C: 114 % of control
[23]
  T/C: 118 % of control

## OC(c1ccccc1)C1CCNCC1 (stereo unspecified) (tested in a mixture with another compound)
[1]
  T/C: 105 % of control
[13]
  T/C: 96 % of control
[14]
  T/C: 99 % of control

## CSc1nc(N)nc2c1ncn2C1CC(O)C(CO)O1 (stereo unspecified)
dose: 50.0 mg/kg/injection, schedule: Q04DX003 (ip), vehicle: Klucel (hydroxypropylcellulose) (HPC)
  T/C: 94 % of control
dose: 100.0 mg/kg/injection, schedule: Q04DX003 (ip), vehicle: Klucel (hydroxypropylcellulose) (HPC)
  T/C: 100 % of control
dose: 200.0 mg/kg/injection, schedule: Q04DX003 (ip), vehicle: Klucel (hydroxypropylcellulose) (HPC)
  T/C: 107 % of control
dose: 400.0 mg/kg/injection, schedule: Q04DX003 (ip), vehicle: Klucel (hydroxypropylcellulose) (HPC)
  T/C: 106 % of control

## CN(C)c1ccc2c(c1)Oc1cc(N(C)C)ccc1C21c2ccccc2C(=O)N1N
[19]
  T/C: 100 % of control
[20]
  T/C: 90 % of control
[21]
  T/C: 90 % of control

## O=[N+]([O-])c1oc2ccc3ccccc3c2c1CCO
[1]
  T/C: 97 % of control
[13]
  T/C: 110 % of control
[14]
  T/C: 117 % of control

## c1ccc(-c2n[nH]c(-c3[nH]nc(-c4ccccc4)c3-c3ccccc3)c2-c2ccccc2)cc1
[1]
  T/C: 100 % of control
[13]
  T/C: 103 % of control
[14]
  T/C: 101 % of control

## CSC(=O)NC(=O)NC(=O)c1ccc([N+](=O)[O-])cc1
[11]
  T/C: 91 % of control
[12]
  T/C: 91 % of control

## CCCCCCC(CCCCCC)=NO
[5]
  T/C: 95 % of control
[6]
  T/C: 113 % of control
[7]
  T/C: 104 % of control

## Nc1nc(C[P+](c2ccccc2)(c2ccccc2)c2ccccc2)c(CCCCc2ccccc2)c(=O)[nH]1
[22]
  T/C: 101 % of control
[23]
  T/C: 101 % of control
[11]
  T/C: 98 % of control and 99 % of control

## O=C1CSC(=Nc2ccccc2)N1c1ncccn1
[15]
  T/C: 103 % of control
[16]
  T/C: 102 % of control
[17]
  T/C: 102 % of control

## COC(=O)CCc1onc(Br)c1CCl
[2]
  T/C: 110 % of control
[3]
  T/C: 115 % of control
[4]
  T/C: 119 % of control

## CCCCS(=O)(=O)CSC#N
dose: 3.12 mg/kg/injection, schedule: Q01DX005 (ip), vehicle: saline with Tween-80
  T/C: 102 % of control
dose: 6.25 mg/kg/injection, schedule: Q01DX005 (ip), vehicle: saline with Tween-80
  T/C: 105 % of control
[18]
  T/C: 117 % of control

## COc1cc(I)cc(OC)c1OC
dose: 6.25 mg/kg/injection, schedule: Q01DX009 (ip), vehicle: Klucel (hydroxypropylcellulose) (HPC)
  T/C: 97 % of control
dose: 12.5 mg/kg/injection, schedule: Q01DX009 (ip), vehicle: Klucel (hydroxypropylcellulose) (HPC)
  T/C: 94 % of control
dose: 25.0 mg/kg/injection, schedule: Q01DX009 (ip), vehicle: Klucel (hydroxypropylcellulose) (HPC)
  T/C: 96 % of control
[15]
  T/C: 91 % of control

## COc1ccc(NC(=O)C/C(C)=C2/C(=O)NN(c3ccccc3)C2=O)cc1
[1]
  T/C: 104 % of control
[13]
  T/C: 97 % of control
[14]
  T/C: 92 % of control

## COCc1onc(-c2ccc(OC)cc2)c1-c1ccc(OC)cc1
[1]
  T/C: 105 % of control
[13]
  T/C: 100 % of control
[14]
  T/C: 100 % of control

## CC(C)(C)c1ccc(O)c(C(c2cc(C(C)(C)C)ccc2O)c2cc(C(C)(C)C)ccc2O)c1
[8]
  T/C: 97 % of control
[9]
  T/C: 98 % of control
[10]
  T/C: 98 % of control

## FC(F)(F)SN1CN(SC(F)(F)F)CN(SC(F)(F)F)CN(SC(F)(F)F)CN(SC(F)(F)F)C1
dose: 60.0 mg/kg/injection, schedule: Q01DX005 (ip), vehicle: saline
  T/C: 92 % of control
dose: 120.0 mg/kg/injection, schedule: Q01DX005 (ip), vehicle: saline
  T/C: 92 % of control

## CC(C)=CCCC(C)=CCON(C)C (mixture of isomers)
[19]
  T/C: 92 % of control
[20]
  T/C: 101 % of control
